Earlier results as cited in patent publication US6683056B2, “O-aryl glucoside SGLT2 inhibitors and method” (Bristol-Myers Squibb Company, priority 2000, dated 2004).

Experiments:
[1] = system: facilitative glucose transporters (GLUTs)
SGLT1 = molecular target: T1, SGLT1 (Homo sapiens, UniProt P13866)
T1 sequence (P13866 1-664): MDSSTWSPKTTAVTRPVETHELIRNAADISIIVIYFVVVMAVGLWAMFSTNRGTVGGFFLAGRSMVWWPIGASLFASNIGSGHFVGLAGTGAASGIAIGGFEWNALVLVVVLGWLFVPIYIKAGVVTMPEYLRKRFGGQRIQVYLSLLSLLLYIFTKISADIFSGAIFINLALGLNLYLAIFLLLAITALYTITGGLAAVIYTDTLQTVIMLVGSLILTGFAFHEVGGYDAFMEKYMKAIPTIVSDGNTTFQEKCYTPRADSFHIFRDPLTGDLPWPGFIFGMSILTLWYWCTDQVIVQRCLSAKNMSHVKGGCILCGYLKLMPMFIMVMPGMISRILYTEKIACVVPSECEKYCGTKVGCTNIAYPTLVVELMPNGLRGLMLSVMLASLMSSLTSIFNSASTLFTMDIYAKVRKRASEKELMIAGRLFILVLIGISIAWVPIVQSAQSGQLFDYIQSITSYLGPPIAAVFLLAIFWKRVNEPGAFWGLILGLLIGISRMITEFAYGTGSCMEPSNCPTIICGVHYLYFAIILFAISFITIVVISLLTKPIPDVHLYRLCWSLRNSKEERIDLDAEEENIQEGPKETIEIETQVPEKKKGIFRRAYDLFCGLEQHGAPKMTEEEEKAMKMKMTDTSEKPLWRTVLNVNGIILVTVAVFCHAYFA

SGLT2 = molecular target: T2, SGLT2 (Homo sapiens, UniProt P31639); details: read-out: Km values for uptake
T2 sequence (P31639 1-672): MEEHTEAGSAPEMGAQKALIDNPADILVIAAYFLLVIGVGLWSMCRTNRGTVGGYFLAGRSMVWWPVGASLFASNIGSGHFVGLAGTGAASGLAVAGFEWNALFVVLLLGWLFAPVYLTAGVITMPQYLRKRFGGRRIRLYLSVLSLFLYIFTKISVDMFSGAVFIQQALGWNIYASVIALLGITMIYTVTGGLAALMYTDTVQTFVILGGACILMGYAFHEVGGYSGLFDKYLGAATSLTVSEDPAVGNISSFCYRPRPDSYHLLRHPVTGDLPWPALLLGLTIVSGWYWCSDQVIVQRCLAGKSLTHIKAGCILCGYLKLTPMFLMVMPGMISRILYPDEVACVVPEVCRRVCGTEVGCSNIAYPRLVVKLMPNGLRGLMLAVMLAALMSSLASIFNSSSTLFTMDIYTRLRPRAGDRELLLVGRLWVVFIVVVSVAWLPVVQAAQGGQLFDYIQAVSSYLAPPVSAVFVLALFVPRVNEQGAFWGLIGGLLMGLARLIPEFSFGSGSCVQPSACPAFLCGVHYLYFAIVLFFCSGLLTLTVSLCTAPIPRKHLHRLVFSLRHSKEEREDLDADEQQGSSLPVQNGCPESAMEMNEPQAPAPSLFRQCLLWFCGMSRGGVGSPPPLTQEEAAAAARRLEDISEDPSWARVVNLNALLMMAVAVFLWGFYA

normal animals = details: despite the presence of glycosuria
[2] = system: several diabetic rodent models and one canine diabetes model
[3] = oral

In the case of `O=C(CCc1ccc(O)cc1)c1c(O)cc(O)cc1O` [phloretin], the “inhibition of facilitated glucose transport” value [1] is listed as “potent inhibitor of facilitated glucose transport”.

For `O=C[C@H](O)[C@@H](O)[C@@H](O)[C@H](O)CO` [galactose], the substrate specificity (SGLT1; SGLT1 versus SGLT2) is listed as “substrate for SGLT1 only”.

In the case of `CO[C@H]1O[C@H](CO)[C@@H](O)[C@H](O)[C@H]1O` [AMG, α-methyl-D-glucopyranoside], the Km (SGLT2) is given as 1600 µM and the Km (SGLT1; SGLT1, read-out: Km values for uptake) is given as 400 µM.

In the case of `O=C(CCc1ccc(O)cc1)c1c(O)cc(O)cc1O[C@@H]1O[C@H](CO)[C@@H](O)[C@H](O)[C@H]1O` [phlorizin], the “hypoglycemic or other adverse effects” value (normal animals) is given as “no hypoglycemic or other adverse effects”, the “in vivo effect on glucose excretion and plasma glucose” value ([2]; diabetic rodent models and one canine diabetes model) is given as “promoting glucose excretion, lowering fasting and fed plasma glucose, and promoting glucose utilization without hypoglycemic side effects” and the “adverse effects of treatment” value ([2]; treatment for as long as two weeks) is given as “No adverse effects on plasma ion balance, renal function or renal morphology”. The “stability in the gut” value [3] was “hydrolyzed in the gut to its aglycone phloretin”.
